Assay results published in patent publication US20150261911A1, “CRYSTAL STRUCTURE” (Heptares Therapeutics Limited, priority 2014, published 2015).
Substitutions are numbered along the chain they refer to. Numbers in names are those of the source. Entries after “also recorded” stand apart in the source; their conditions may differ.

T1: CRF1R F203A(3.44) (Homo sapiens, UniProt P34998, F203A)
T1 construct: expressed in transfected cells; host or cells: HEK293T, transient; whole cells solubilised in DDM
T1 sequence (P34998 with tags, fused parts or gaps F203A): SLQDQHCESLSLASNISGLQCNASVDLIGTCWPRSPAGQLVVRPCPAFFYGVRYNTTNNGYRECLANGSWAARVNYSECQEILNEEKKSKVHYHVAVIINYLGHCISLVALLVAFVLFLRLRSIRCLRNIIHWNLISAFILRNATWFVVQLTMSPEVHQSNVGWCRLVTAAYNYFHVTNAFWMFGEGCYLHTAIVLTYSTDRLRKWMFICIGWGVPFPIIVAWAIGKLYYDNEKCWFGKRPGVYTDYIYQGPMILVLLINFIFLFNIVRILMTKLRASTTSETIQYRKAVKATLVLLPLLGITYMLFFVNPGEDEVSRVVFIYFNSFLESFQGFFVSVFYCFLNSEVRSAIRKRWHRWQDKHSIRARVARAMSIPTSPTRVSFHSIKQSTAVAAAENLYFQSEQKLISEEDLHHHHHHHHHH

T2: CRF1R Q355A(7.49) (Homo sapiens, UniProt P34998, Q355A)
T2 construct: expressed in transfected cells; host or cells: HEK293T, transient; whole cells solubilised in DDM
T2 sequence (P34998 with tags, fused parts or gaps Q355A): T1 sequence (P34998 with tags, fused parts or gaps F203A) with A180F, Q332A

T3: CRF1R N283A(5.50) (Homo sapiens, UniProt P34998, N283A)
T3 construct: expressed in transfected cells; host or cells: HEK293T, transient; whole cells solubilised in DDM
T3 sequence (P34998 with tags, fused parts or gaps N283A): T1 sequence (P34998 with tags, fused parts or gaps F203A) with A180F, N260A

T4: CRF1R L280A(5.47) (Homo sapiens, UniProt P34998, L280A)
T4 construct: expressed in transfected cells; host or cells: HEK293T, transient; whole cells solubilised in DDM
T4 sequence (P34998 with tags, fused parts or gaps L280A): T1 sequence (P34998 with tags, fused parts or gaps F203A) with A180F, L257A

B1: CRF1R wild type: wild-type human corticotropin-releasing factor receptor 1 (FIG. 12, SEQ ID NO:18) (protein)
chain: MGGHPQLRLVKALLLLGLNPVSASLQDQHCESLSLASNISGLQCNASVDLIGTCWPRSPAGQLVVRPCPAFFYGVRYNTTNNGYRECLANGSWAARVNYSECQEILNEEKKSKVHYHVAVIINYLGHCISLVALLVAFVLFLRLRSIRCLRNIIHWNLISAFILRNATWFVVQLTMSPEVHQSNVGWCRLVTAAYNYFHVTNFFWMFGEGCYLHTAIVLTYSTDRLRKWMFICIGWGVPFPIIVAWAIGKLYYDNEKCWFGKRPGVYTDYIYQGPMILVLLINFIFLFNIVRILMTKLRASTTSETIQYRKAVKATLVLLPLLGITYMLFFVNPGEDEVSRVVFIYFNSFLESFQGFFVSVFYCFLNSEVRSAIRKRWHRWQDKHSIRARVARAMSIPTSPTRVSFHSIKQSTAVAAAENLYFQSEQKLISEEDLHHHHHHHHHH
B2: CRF1R StaR: thermostabilized CRF1R with 12 mutations: V120A, L144A, W156A, S160A, S222A, K228A, F260A, I277A, Y309A, F330A, S349A, Y363A (protein)
chain: MGGHPQLRLVKALLLLGLNPVSASLQDQHCESLSLASNISGLQCNASVDLIGTCWPRSPAGQLVVRPCPAFFYGVRYNTTNNGYRECLANGSWAARVNYSECQEILNEEKKSKVHYHVAAIINYLGHCISLVALLVAFVLFLRARSIRCLRNIIHANLIAAFILRNATWFVVQLTMSPEVHQSNVGWCRLVTAAYNYFHVTNFFWMFGEGCYLHTAIVLTYATDRLRAWMFICIGWGVPFPIIVAWAIGKLYYDNEKCWAGKRPGVYTDYIYQGPMALVLLINFIFLFNIVRILMTKLRASTTSETIQARKAVKATLVLLPLLGITYMLAFVNPGEDEVSRVVFIYFNAFLESFQGFFVSVFACFLNSEVRSAIRKRWHRWQDKHSIRARVARAMSIPTSPTRVSFHSIKQSTAVAAAENLYFQSEQKLISEEDLHHHHHHHHHH
modifications: C-terminal tag

How the values were obtained:
CRF1R F203A(3.44) = target: T1, CRF1R F203A(3.44); assay: Solubilised whole cell ligand binding, alanine mutagenesis; conditions: Phe203^3.44Ala
Procedure: (§1) HEK293T cells transiently transfected with CRF1R constructs were incubated in buffer (50mMTris-HCl pH 7.5, 150mMNaCl, EDTA-free protease inhibitors) with 30 nM [^3H]CP-376395, and 120 nM cold CP-376395 (Tocris) for 18 hours at room temperature. Reactions were transferred to ice and all subsequent steps performed at 4° C. Cells were solubilized in 1% (w/v) n-dodecyl-β-D-maltopyranoside (DDM, Affymetrix) for 1 hour and crude lysates cleared by centrifugation at 16.000×g for 15 minutes. Thermostability of the receptor was measured by incubation at varying temperatures for 30 minutes followed by separation of excess and unbound radioligand by gel filtration. Levels of ligand-bound receptor were then determined using a liquid scintillation counter.
(§2) For saturation binding experiments, membranes isolated from HEK293T cells transiently expressing wild-type CRF1R (15 μg/well), CRF1R StaR (6 μg/well), CRF1R StaR with T4L fusion (20 μg/well), and CRF1R-#105 (20 μg/well) were incubated in buffer (50mMTris-HCl pH 7.5, 150 mM NaCl, 0.1% (w/v) PEI, EDTA-free protease inhibitors) with [^3H]CP-376395 (0-60 nM) in the presence or absence of 30 uM cold CP-376395 in a final volume of 500 μl. Final DMSO concentration in each reaction was 5% (v/v). Membranes were incubated for 18 hours at room temperature before being terminated by rapid filtration through 96-well GF/C UniFilter plates pre-soaked in 0.3% (w/v) PEI, followed by washing with PBS with 0.15% (w/v) CHAPS. Plates were dried, 50 μl Ultima Gold-F added per well and bound ligand measured using a Packard Microbeta counter. Data were analyzed using a global fitted one-site binding hyperbola in GraphPad Prism v5 to generate Kd. For solubilized whole cell ligand binding experiments, HEK293T cells transiently expressing eGFP-tagged wild-type CRF1R or single point mutants were treated as described above for thermostability experiments, without the 30 minute heating step. Specific binding was determined by subtracting untransfected controls. Expression of each construct was quantified by eGFP fluorescence of whole cells measured at Ex/Em of 488/520 nm.

CRF1R Q355A(7.49) = target: T2, CRF1R Q355A(7.49); assay: as above; conditions: Gln355^7.49 substituted with alanine
Procedure: as §1, §2

CRF1R N283A(5.50) = target: T3, CRF1R N283A(5.50); assay: as above; conditions: Asn283^5.50Ala
Procedure: as §1, §2

CRF1R L280A(5.47) = target: T4, CRF1R L280A(5.47); assay: as above; conditions: Leu280^5.47Ala
Procedure: as §1, §2

[1] = Thermostability measurement of CRF1R constructs solubilised in DDM, read out by [3H]CP-376395 binding; format: physicochemical, human; conditions: measured using [3H]CP-376395 binding, mean of four independent experiments, standard deviation in parentheses
Procedure: as §1

Molecule | antagonist binding after mutation to alanine (CRF1R F203A(3.44)) | CP-376395 binding after substitution with alanine (CRF1R Q355A(7.49)) | ligand binding after mutation to alanine (CRF1R N283A(5.50)) | antagonist binding after mutation to alanine (CRF1R L280A(5.47)) | Mean Tm [1]
CCC(CC)Nc1cc(C)nc(Oc2c(C)cc(C)cc2C)c1C [CP-376395] | negligible or no binding detected | did not affect | complete loss of ligand binding; also recorded: negligible or no binding detected | negligible or no binding detected | 
B1 |  |  |  |  | 18.4 (2.0) ° C.
B2 |  |  |  |  | 44.7 (2.2) ° C.
